No end group written: not given here.
Columns and labels:
E. coli biofilm = test: Antibiofilm assay (MBIC/MBEC), crystal violet; assay type: cell-based, Escherichia coli; details: LB, 595 nm, nine replicates from three independent experiments; for MBIC: E. coli biofilm inhibition; for MBEC: E. coli preformed 24 h biofilm, peptide 24 h at 37 °C
Experimental: (§1) The minimal biofilm inhibitory concentration assay (MBIC) and minimal biofilm eradication concentration assay (MBEC) were performed on each of the peptides using Gram-positive bacteria cultured in Tryptic Soy Broth (TSB, Sigma-Aldrich, St. Louis, MO, USA) and Gram-negative bacteria cultured in Luria-Bertani broth (LB, Thermo Fisher Scientific, Carlsbad, CA, USA). The seeding concentration in 96-well plates of bacterial suspension was the same as for the anti-bacterial assay, and a UV spectrophotometer set to 550 nm was used to detect OD values. Melittin was used as a positive control. For MBIC, peptide solution was mixed with bacterial suspension at first to test if it could inhibit the growth of biofilm. However, for minimal biofilm eradication (MBEC) assays, biofilm was formed in 96-well plates at 37 °C for 24 h after seeding bacteria; afterwards, it was washed by sterile PBS twice. Peptide solutions, prepared with culture broth, were added to […] the biofilms by incubating at 37 °C for 24 h. Both plates were washed by PBS twice and stained by 125 µL 0.1% crystal violet solution (Sigma-Aldrich, Gillingham, UK). The stain was dissolved in 150 µL 30% acetic acid (Sigma-Aldrich, Gillingham, UK). The absorbance values of 100 µL solution from each well, were analysed by using a Synergy HT plate reader (Biotech, Minneapolis, MN, USA) set at 595 nm.

E. faecalis biofilm = test: Antibiofilm assay (MBIC/MBEC), crystal violet; assay type: cell-based, Enterococcus faecalis; details: TSB, 595 nm, nine replicates from three independent experiments; for MBIC: E. faecalis biofilm inhibition; for MBEC: E. faecalis preformed 24 h biofilm, peptide 24 h at 37 °C
Experimental: as §1

MRSA biofilm = test: Antibiofilm assay (MBIC/MBEC), crystal violet; assay type: cell-based, methicillin-resistant Staphylococcus aureus; details: TSB, 595 nm, nine replicates from three independent experiments; for MBIC: MRSA biofilm inhibition; for MBEC: MRSA preformed 24 h biofilm, peptide 24 h at 37 °C
Experimental: as §1

S. aureus biofilm = test: Antibiofilm assay (MBIC/MBEC), crystal violet; assay type: cell-based, Staphylococcus aureus; details: TSB, 595 nm, nine replicates from three independent experiments; for MBIC: S. aureus biofilm inhibition; for MBEC: S. aureus preformed 24 h biofilm, peptide 24 h at 37 °C
Experimental: as §1

K. pneumoniae biofilm = test: Antibiofilm assay (MBIC/MBEC), crystal violet; assay type: cell-based, Klebsiella pneumoniae; details: LB, 595 nm, nine replicates from three independent experiments; for MBIC: K. pneumoniae biofilm inhibition; for MBEC: K. pneumoniae preformed 24 h biofilm, peptide 24 h at 37 °C
Experimental: as §1

P. aeruginosa biofilm = test: Antibiofilm assay (MBIC/MBEC), crystal violet; assay type: cell-based, Pseudomonas aeruginosa; details: LB, 595 nm, nine replicates from three independent experiments; for MBIC: P. aeruginosa biofilm inhibition; for MBEC: P. aeruginosa preformed 24 h biofilm, peptide 24 h at 37 °C
Experimental: as §1

horse erythrocytes = test: Haemolysis assay; assay type: cell-based; details: 37 °C, 2 h; for HC50 (peptide concentration that caused 50% lysis of horse red blood cells): 4% (v/v) defibrinated horse erythrocytes, 550 nm, normalised to 1% Triton X-100, calculated from the haemolysis curve
Experimental: Defibrinated horse erythrocytes (TCS Biosciences Ltd., Buckingham, UK) were used in the haemolysis assay. Peptides, from 1 μM to 512 μM, were tested with a 4% (v/v) erythrocyte suspension and were incubated at 37 °C for 2 h, while 1% Triton X-100 (Sigma-Aldrich, St. Louis, MO, USA) was acted as a positive control and phosphate-buffered saline (PBS) was used as a negative control. The sample supernatants were analysed at 550 nm on an ELISA plate reader (Biolise BioTek EL808, Winooski, VT, USA).

C. albicans (ATCC 10231) = test: MIC/MBC broth dilution assay; assay type: cell-based, Candida albicans; details: 37 °C overnight, nine replicates from three independent experiments; for MIC: broth dilution, Yeast Extract Peptone Dextrose, 5 × 10^5 CFU/mL, OD 550 nm; for MBC: sub-culture on agar plates
Experimental: (§2) The minimal inhibitory concentration assay (MIC) and minimum bactericidal concentration assay (MBC) of the peptide were carried out using the broth dilution method. Seven microbes, including the Gram-positive bacteria, S. aureus (NCTC 6538), MRSA, (ATCC 12493) and Enterococcus faecalis (E. faecalis) (NCTC 12697); Gram-negative bacteria, E. coli (ATCC 8739), Klebsiella pneumoniae (K. pneumoniae) (ATCC 43816) and Pseudomonas aeruginosa (P. aeruginosa) (ATCC 9027); and a yeast, C. albicans (ATCC 10231), were used in these assays and incubated with peptide at 37 °C overnight. The growth culture media were Yeast Extract Peptone Dextrose for C. albicans and Mueller–Hinton broth for others. The concentration of microbes was detected by measuring OD values through the use of a UV spectrophotometer set to 550 nm. C. albicans assays required 10^6 colony forming units (CFU)/mL, while others were incubated with 10^8 CFU/mL and verified by viable cell counts. All of the inocula were diluted to final concentrations of 5 × 10^5 CFU/mL. The concentration of peptides ranged from 1 µM to 512 µM (C = 1, 2, 4, 8, 16, 32, 64, 128, 256, 512 µM). Two mg/mL of amphotericin B for C. albicans and 2 mg/mL norfloxacin for others were applied as positive controls, and 1% of dimethyl sulphoxide (DMSO) was applied as a vehicle control. The 96-well plates were analysed at 550 nm using an ELISA plate reader (Biolise BioTek EL808, Winooski, VT, USA).
(§3) After analysing the growth situation of microbial cultures from each concentration, 10 µL of the inhibited cultures (the peptide concentration ranges from MIC to maximum concentration) were selected to sub-culture onto the Mueller–Hinton agar (MHA) plates. The plates were incubated overnight at 37 °C. After incubation, the lowest concentration on the MHA plates with no bacterial growth was regarded as the MBC value.

[1] = system: K. pneumoniae (ATCC 43816); test: MIC/MBC broth dilution assay; assay type: cell-based, Klebsiella pneumoniae; details: 37 °C overnight, nine replicates from three independent experiments; for MIC: broth dilution, Mueller–Hinton broth, 5 × 10^5 CFU/mL, OD 550 nm
Experimental: as §2, §3

MRSA (ATCC 12493) = test: MIC/MBC broth dilution assay; assay type: cell-based, methicillin-resistant Staphylococcus aureus; details: 37 °C overnight, nine replicates from three independent experiments; for MIC: broth dilution, Mueller–Hinton broth, 5 × 10^5 CFU/mL, OD 550 nm; for MBC: sub-culture on MHA
Experimental: as §2, §3

E. faecalis (NCTC 12697) = test: MIC/MBC broth dilution assay; assay type: cell-based, Enterococcus faecalis; details: 37 °C overnight, nine replicates from three independent experiments; for MIC: broth dilution, Mueller–Hinton broth, 5 × 10^5 CFU/mL, OD 550 nm; for MBC: sub-culture on MHA
Experimental: as §2, §3

E. coli (ATCC 8739) = test: MIC/MBC broth dilution assay; assay type: cell-based, Escherichia coli; details: 37 °C overnight, nine replicates from three independent experiments; for MIC: broth dilution, Mueller–Hinton broth, 5 × 10^5 CFU/mL, OD 550 nm; for MBC: sub-culture on MHA
Experimental: as §2, §3

S. aureus (NCTC 6538) = test: MIC/MBC broth dilution assay; assay type: cell-based, Staphylococcus aureus; details: 37 °C overnight, nine replicates from three independent experiments; for MIC: broth dilution, Mueller–Hinton broth, 5 × 10^5 CFU/mL, OD 550 nm; for MBC: sub-culture of inhibited cultures on MHA
Experimental: as §2, §3

[2] = system: P. aeruginosa (ATCC 9027); test: MIC/MBC broth dilution assay; assay type: cell-based, Pseudomonas aeruginosa; details: 37 °C overnight, nine replicates from three independent experiments; for MIC: broth dilution, Mueller–Hinton broth, 5 × 10^5 CFU/mL, OD 550 nm; for MBC: sub-culture on MHA
Experimental: as §2, §3

Gram-positive bacteria = test: MIC broth dilution assay, summary over Gram-positive bacteria; assay type: cell-based; details: range over S. aureus, MRSA, E. faecalis
Experimental: as §2, with “Two mg/mL of amphotericin B for C. albicans and 2 mg/mL norfloxacin for others were applied as positive controls, and 1% of dimethyl sulphoxide (DMSO) was applied as a vehicle control.” left out, “USA). […]” for “USA).”

Row | Compound | MBIC (E. coli biofilm) | MBIC (E. faecalis biofilm) | MBIC (MRSA biofilm) | MBIC (S. aureus biofilm) | MBIC (K. pneumoniae biofilm) | MBIC (P. aeruginosa biofilm) | MBEC (E. coli biofilm) | MBEC (E. faecalis biofilm) | MBEC (MRSA biofilm) | MBEC (S. aureus biofilm) | MBEC (K. pneumoniae biofilm) | HC50 (peptide concentration that caused 50% lysis of horse red blood cells) (horse erythrocytes) | MIC (C. albicans (ATCC 10231)) | MIC [1] | MBC (MRSA (ATCC 12493)) | MIC (E. faecalis (NCTC 12697)) | MBEC (P. aeruginosa biofilm) | MIC (E. coli (ATCC 8739)) | MBC (S. aureus (NCTC 6538)) | MIC [2] | also measured
1 | CC[C@H](C)[C@H](NC(=O)CN)C(=O)NCC(=O)N[C@@H](C)C(=O)N[C@H](C(=O)N[C@@H](CC(C)C)C(=O)N[C@@H](CCCCN)C(=O)N[C@H](C(=O)N[C@@H](CC(C)C)C(=O)N[C@H](C(=O)N[C@H](C(=O)NCC(=O)N[C@@H](CC(C)C)C(=O)N1CCC[C@H]1C(=O)N[C@@H](C)C(=O)N[C@@H](CC(C)C)C(=O)N[C@H](C(=O)N[C@@H](CO)C(=O)N[C@@H](Cc1c[nH]c2ccccc12)C(=O)N[C@H](C(=O)N[C@@H](CCCCN)C(=O)N[C@@H](CCCNC(=N)N)C(=O)N[C@@H](CCCCN)C(=O)N[C@@H](CCCNC(=N)N)C(=O)N[C@@H](CCC(N)=O)C(=O)N[C@@H](CCC(N)=O)C(N)=O)[C@@H](C)CC)[C@@H](C)CC)[C@@H](C)O)[C@@H](C)O)C(C)C)C(C)C [Melittin, reference compound] | 32 µM | 8 µM | 8 µM | 4 µM | 128 µM | 64 µM | – | – | – | – | – | – | – | – | – | – | – | – | – | – | –
2 | FLGIIGKLLSGLL-NH2 [VM-3G] | 256 µM | 8 µM | 2 µM | 2 µM | >512/>512 µM | >512/>512 µM | > 512 µM | > 512 µM | 32 µM | 32 µM | >512/>512 µM | 9.686 µM | >512 µM | >512 µM | 2 µM | 4 µM | >512/>512 µM | 64 µM | 1 µM | 128 µM | MIC (MRSA (ATCC 12493)): 2 µM; MBC (E. faecalis (NCTC 12697)): 4 µM; MBC (E. coli (ATCC 8739)): 128 µM; MIC (S. aureus (NCTC 6538)): 1 µM; MBC [2]: 128 µM
3 | FLKIIGKLLSGLL-NH2 [VM-3K] | 16 µM | 4 µM | 2 µM | 2 µM | 64 µM | 32 µM | > 512 µM | > 512 µM | 64 µM | 32 µM | > 512 µM | 11.2 µM | 32 µM | 32 µM | 2 µM | 2/2 µM | > 512 µM | 8 µM | 1 µM | 16 µM | MBC (C. albicans (ATCC 10231)): 32 µM; MBC ([1]; sub-culture on MHA): 32 µM; MIC (MRSA (ATCC 12493)): 1 µM; MBC (E. coli (ATCC 8739)): 8 µM; MIC (S. aureus (NCTC 6538)): 1 µM; MBC [2]: 16 µM
4 | FLPIIGKLLSGLL-NH2 [VM] | >512/>512 µM | – | 8 µM | 8 µM | >512/>512 µM | >512/>512 µM | >512/>512 µM | – | 64 µM | 64 µM | >512/>512 µM | 44.43 µM | – | >512 µM | 4 µM | 16 µM | >512/>512 µM | 256 µM | 4 µM | >512 µM | maximum concentration that caused less than 10% haemolysis (horse erythrocytes; 4% horse erythrocytes): 16 µM; MICs against Gram-positive bacteria (Gram-positive bacteria): 4 to 16 µM; MBC (C. albicans (ATCC 10231)): 32/32 µM; MIC (MRSA (ATCC 12493)): 4 µM; MBC (E. faecalis (NCTC 12697)): 16 µM; MBC (E. coli (ATCC 8739)): 256 µM; MIC (S. aureus (NCTC 6538)): 4 µM
5 | FLWIIGKLLSGLL-NH2 [VM-3W] | >512/>512 µM | 16 µM | 4 µM | 4 µM | >512/>512 µM | >512/>512 µM | >512/>512 µM | > 512 µM | 128 µM | 128 µM | >512/>512 µM | 9.682 µM | >512 µM | >512 µM | 2 µM | 4 µM | >512/>512 µM | >512 µM | 1 µM | >512 µM | MIC (MRSA (ATCC 12493)): 2 µM; MBC (E. faecalis (NCTC 12697)): 4 µM; MIC (S. aureus (NCTC 6538)): 1 µM
6 | FLYIIGKLLSGLL-NH2 [VM-3Y] | >512/>512 µM | 64 µM | 2 µM | 2 µM | >512/>512 µM | >512/>512 µM | >512/>512 µM | > 512 µM | 64 µM | 128 µM | >512/>512 µM | 211.2 µM | >512 µM | >512 µM | 2/2 µM | 4 µM | >512/>512 µM | >512 µM | 2/2 µM | >512 µM | MBC (E. faecalis (NCTC 12697)): 4 µM

Reference: PMC9495676, “Evaluation of the Antimicrobial Properties of a Natural Peptide from Vespa mandarinia Venom and Its Synthetic Analogues as a Possible Route to Defeat Drug-Resistant Microbes” (Biology, 2022)
